# Test results as given in patent publication US7030087B2, “Synthetic approach to designed chemical structures” (priority 1996, dated 2006).
# Marks after values point to notes of the source that are not given here. No end group written: not given here.
# Tests used:
# E. coli 055:B5 endotoxin = test: Chromogenic Limulus amoebocyte lysate test, neutralization of endotoxin in vitro; assay type: biochemical; details: 0.01 ng of LPS mixed with 5×10^−6M peptide
# Procedure: (§1) LPS derived from P. aeruginosa and E. coli 0111:B4 or 055:B5 was purchased from List Biological Laboratories (Campbell, Calif.) and stored at 4° C. until use. A commercially available chromogenic Limulus amoebocyte lysate test (Whittaker, Walkersville, Md.) was used to measure endotoxin levels in all solutions and serum samples. Endotoxin levels in peptide solutions were determined to be less than about 0.1 ng/ml. The capacity of BG22, βpep-3 and BG16 to neutralize E. coli 055:B5 endotoxin in vitro was determined by mixing 0.01 ng of LPS with 5×10^−6M of each peptide and results were compared to that observed for 0.01 ng of LPS alone.
# [1] = tested on: Pseudomonas aeruginosa LPS; test: Endotoxemia in vivo, serum endotoxin levels; set-up: unit not given here; details: iv 125 μg peptide preincubated with 2 μg LPS per mouse
# Procedure: as §1
# (§2) To study endotoxemia in a mammal, 500 μg of each peptide was added to 8 μg of Pseudomonas aeruginosa LPS in 2.0 ml of pyrogen-free phosphate buffered saline (PBS) ex vivo, and incubated for 30 minutes on a shaker at room temperature. Each mouse was injected via tail vein with 0.5 ml of the mixture (125 μg of BG22, BG16, or βpep-3 and 2 μg of LPS per mouse). Mice were euthanized at 30, 60, 90 and 120 minutes after injection and serum collected just prior to death was analyzed for endotoxin levels and TNF-α concentration.
# All TNF-α and endotoxin measurements in duplicate or triplicate in each experiment. In vivo experiments were performed twice to confirm reproducibility. The results obtained were compared using the unpaired Student's t-test.
# TNF-α = test: Endotoxemia in vivo, serum TNF-α levels; set-up: species or system mouse; details: 90 minutes post-challenge; compared to mice receiving LPS without peptide, p<0.05
# Procedure: (§3) TNF-α concentrations were measured as described by Battafarano et al. (supra). Briefly, the TNF-α sensitive cell line WEHI was used in all assays of either RAW cell supernatant (in vitro) or serum (in vivo animal model). Concentrations were extrapolated from a standard curve based oil dilutions of purified TNF-α (Genzyme, Cambridge, Mass.), and all samples were examined in triplicate. Viability of the WEHI cells was assessed by measuring the extent of cellular crystal violet uptake by spectrophotometry at 590 nm. In this assay, absorbance was inversely correlated with cell death and lysis resulting from exposure of WEHI cells to TNF-α. The amount of TNF-α in each experimental sample was extrapolated from the standard curve.
# as §2
# All TNF-α and endotoxin measurements in duplicate or triplicate in each experiment. […]
# RAW 264.7 cells = test: LPS-induced secretion of TNF-α in vitro by RAW 264.7 cells; assay type: cell-based; details: 200 ng/ml E. coli 0111:B4 LPS preincubated with 10^−5 M peptide, 3 hours; compared to BG22, p=0.04
# Procedure: […] RAW 264.7 cells were placed in each well of a 24-well culture plate and allowed to adhere. Immediately before LPS stimulation, medium was removed and cells were washed in serum-free Dulbecco's modified Eagle's medium (DMDM). Cells were incubated at 37° C. in a 10% CO2 atmosphere for 3 hours with: 1) DMEM alone, 2) E. coli 0111:B4 LPS alone, or 3) E. coli 0111:B4 LPS preincubated with BG22, βpep-3 or BG16. The concentration of LPS used in all groups was 200 ng/ml. To avoid non-specific inhibition of LPS-induced TNF-α secretion, 10^−5 M of each peptide was used in the experimental wells. At the end of the incubation period, macrophage supernatants were collected and assayed for TNF-α concentration.
# as §3, with “The amount of TNF-α in each experimental sample was extrapolated from the standard curve.” left out
# P. aeruginosa = test: Bactericidal activity assay; assay type: cell-based, Pseudomonas aeruginosa type 1; details: 1.2 × 10^−7 M Peptide; 5 × 105 P. aeruginosa
# Excerpt: Bacteria: P. aeruginosa type 1 is a clinical isolate maintained in the laboratory. The isolate remains a smooth strain and was serotyped by the scheme of Homma. The Pseudomonas strain was maintained by monthly transfer on blood agar plates.
# The peptides can be assayed for bactericidal activity against a variety of organisms such as Pseudomonas aeruginosa type 1, P. cepacia ATCC 25608, E. coli B, and Staphylococcus aureus 502A by standard methods.
# Pseudomonas aeruginosa type 1 is a clinical isolate. The isolate remains a smooth strain and was serotyped by the scheme of Homma (Jpn. J. Exp. Med. 46:329, 1976). A rough strain, E. coli B and S. aureus 502A were obtained from Paul Quie, University of Minnesota (Minneapolis, Minn.). The characteristics of the S. aureus strain have been described by Shinefield et al. (Amer. J. Dis. Chil. 105:646, 1963). Pseudomonas cepacia ATCC 25608 can be purchased from the ATCC. S. aureus and E. coli were maintained on nutrient agar plates and the Pseudomonas strains were maintained on blood agar plates.
# Pyrogen-free solutions were used throughout the assay and all methods that follow. Log phase bacteria were prepared from a culture in brain heart infusion broth (Hovde et al. Infect. Immun. 54:142–148, 1986) and bacteria were washed and resuspended in saline with adjustment to an optical density at 650 nm to provide a yield of about 3×10^8 CFU/ml. Bacteria were diluted 1:10 in 0.08M citrate phosphate buffer, pH 5.6 or pH 7.0, for use in the assay. S. aureus rapidly lost viability in the pH 5.6 buffer and was studied only at pH 7.0. Bactericidal activity was determined by dose response over peptide concentrations ranging from about […] to about 4.1×10^−9M. Bactericidal activity was determined by dose response, preferably determining LD50 by linear regression.
# [2] = tested on: endotoxin from E. coli 055:B5; test: Limulus amoebocyte lysate assay (E-TOXATE), endotoxin neutralization; assay type: biochemical; details: 5.0 × 10^−6 M Peptide; 0.02 U (0.2 pg) endotoxin from E. coli 055:B5; Table 4
# Procedure: The peptides were tested for their ability to neutralize endotoxin. Quantitative endotoxin activities for these peptides were measured by Limulus amoebocyte lysate assay.
# Limulus amoebocyte lysate assay: The ability of synthetic peptides to neutralize endotoxin was detected with the E-TOXATE kit manufactured by Sigma Chemicals (St. Louis, Mo.). […] Peptide or B/PI was incubated with LPS at room temperature for 5 min in 100 ul of a 1:2 dilution of pyrogen-free saline (pH 6.4). The reaction was started by addition of 100 ul of amoebocyte lysate and the final volume was 200 ul. Assuming a 10,000 molecular weight for LPS, the approximate molar ration of B/PI:LPS at neutralization was 3000 to 1.
# The peptides were tested according to the method provided above. […] BG38L was used as a positive control in these experiments.
# [3] = target: the molecule itself; test: PFG NMR self-diffusion at 2 C; self-association
# Procedure: (§4) Pulsed-Field Gradient (PFG) NMR Self-Diffusion Measurements of β-Peptide Series Peptides Pulsed-field gradient (PFG) NMR diffusion measurements (Gibbs, et al. *J. Magn. Reson* 93:395–402, 1991) were performed on βpep peptides to assess self-association properties. Pulsed field gradient (PFG) NMR self-diffusion measurements were made on a Bruker AMX-600 using a GRASP gradient unit. NMR spectra for measurement of diffusion coefficients, D, were acquired using a 5 mm triple-resonance probe equipped with an actively shielded z-gradient coil. […]
# (§5) The Stokes-Einstein relationship $D = k_B T / 6\pi \eta R$ was used to relate D to the macro-molecular radius, R, which was considered to be proportional to the square root of the apparent molecular weight, Mapp^{1/2} (Cantor et al. 1980. *The behavior of biological macromolecules*. Biophysical Chemistry, part III. New York: W. H. Freeman. pp. 979–1039). […] Use of the Stokes-Einstein relationship is specifically derived for a hard sphere, and although the actual molecular shape of each peptide aggregate would affect the diffusion coefficient, the maximum change in the ratio $Daggregate/Dmonomer$ would be about 20% in case of an improbable linear peptide tetramer. $Mapp$ for peptides was calculated using D values of lysozyme, ribonuclease and ubiquitin as standards for monomers of known molecular weight.
# [4] = target: the molecule itself; test: PFG NMR self-diffusion at 30 C, calibrated with lysozyme, ubiquitin and ribonuclease; self-association
# Procedure: Reson* 93:395–402, 1991) were performed on βpep peptides to assess self-association properties. Pulsed field gradient (PFG) NMR self-diffusion measurements were made on a Bruker AMX-600 using a GRASP gradient unit. NMR spectra for measurement of diffusion coefficients, D, were acquired using a 5 mm triple-resonance probe equipped with an actively shielded z-gradient coil. […] The PFG longitudinal eddy-current delay pulse-sequence was used for all self-diffusion measurements which were performed in D_2O over the temperature range 275° K to 310° K Peptide concentrations ranged from 3 mg/mL to 10 mg/mL.
# The Stokes-Einstein relationship $D = k_B T / 6\pi \eta R$ was used to relate D to the macro-molecular radius, R, which was considered to be proportional to the square root of the apparent molecular weight, Mapp^{1/2} (Cantor et al. 1980. *The behavior of biological macromolecules*. Biophysical Chemistry, part III. New York: W. H. Freeman. pp. 979–1039). Therefore, D is proportional to Mapp^{-1/2}. From these simple relationships, the ratio $Ddimer/Dmonomer$ was 0.71, which is very close to 0.72 theoretically predicted for a two sphere dimer (Wills, et al. *J. Phys. Chem.* 85: 3978–3984, 1981). Use of the Stokes-Einstein relationship is specifically derived for a hard sphere, and although the actual molecular shape of each peptide aggregate would affect the diffusion coefficient, the maximum change in the ratio $Daggregate/Dmonomer$ would be about 20% in case of an improbable linear peptide tetramer. $Mapp$ for peptides was calculated using D values of lysozyme, ribonuclease and ubiquitin as standards for monomers of known molecular weight.
# The temperature dependence of diffusion coefficients is plotted in FIG. 4. […] Moreover, for βpep-5, βpep-8 and βpep-1, the temperature dependence was linear and followed the activation energy expected for the self-diffusion of water.
# [5] = target: the molecule itself; test: PFG NMR self-diffusion, 10 C to 40 C; self-association
# Procedure: as §4, §5
# [6] = target: the molecule itself; test: PFG NMR self-diffusion; self-association
# Procedure: as §4, §5
# [7] = target: the molecule itself; test: NMR solution structure; self-association
# [8] = 30 minutes after LPS/Peptide injection
# [9] = 60 minutes after LPS/Peptide injection
# [10] = 90 minutes after LPS/Peptide injection
# [11] = 120 minutes after LPS/Peptide injection
Molecule,% Neutralization of Endotoxin (E. coli 055:B5 endotoxin),"endotoxemia in vivo, serum endotoxin levels [1, 8]","endotoxemia in vivo, serum endotoxin levels [1, 9]","endotoxemia in vivo, serum endotoxin levels [1, 10]","endotoxemia in vivo, serum endotoxin levels [1, 11]","average molecular weight (apparent, self-associated state) [4]",also measured
MNSQVCEKVTNSVSSKLQPYFQTLPVMTKI [BG16],0%,">10,000","2,394","5,599",">10,000",,
"NANIKISGKWKAQKRFLKMSGNFDLSI [BG22, a 27mer, BPI aa 82–108]",37%,7*,28*,73*,47*,,serum TNF-α levels (in words) (TNF-α): decreased serum TNF-α levels
HIKELQVKWKAQKRFLKMSIIVKLNDGRELSLD [βpep-3],81%,11*,37*,63*,66*,,"LPS-induced TNF-α secretion (in words) (RAW 264.7 cells): significantly greater decrease in TNF-α secretion; Bactericidal Activity, % killing (P. aeruginosa): 24.9, n = 3%; serum TNF-α levels (in words) (TNF-α): decreased serum TNF-α levels; Endotoxin Neutralization, % neutralization [2]: 79.4, n = 10%"
"ANIKLSVEMKLFKRHLKWKIIVKLNDGRELSLD-NH2 (not fully specified, Synthetic 33-mer designed de novo; It is entered as the monomer chain) [βpep-8]",,,,,,9490 Da,ratio of apparent molecular weight to calculated monomer molecular weight [3]: 3.7; ratio of apparent molecular weight to calculated monomer molecular weight [5]: 2.4
"SIQDLNVSMKLFRKQAKWKIIVKLNDGRELSLD-NH2 (not fully specified, Synthetic 33-mer designed de novo; It is entered as the monomer chain) [βpep-1]",,,,,,13700 Da,ratio of average molecular weight to calculated monomer molecular weight [6]: 3.6
"SIQDLNVSMKLFRKQAKWKINVKLNDGRELSLD-NH2 (also: β-sheet sandwich tetramer, Synthetic 33-mer designed de novo; It is entered as the monomer chain) [βpep-4]",,,,,,,binding result [7]: binds
"KFIVTLRVIKAGPHSPTAQIIVELKNGRKLSLD-NH2 (not fully specified, It is entered as the monomer chain) [βpep-5]",,,,,,12800 Da,ratio of average molecular weight to calculated monomer molecular weight [6]: 3.6
